From patent US20110065739A1, “NOVEL ISOXAZOLE DRIVATIVE” (priority 2008, published 2011)
Counter-ions that a name gives are not always drawn.

What follows are compounds tested against T1, human GPR120 (Homo sapiens, UniProt Q5NUL3) (assay: Measurement of intracellular calcium concentration (FLIPR), GPR120 agonist action). Details: 10 μmol/l test compound, human GPR120 expression CHO cells, Fluo-4 AM.
T1 construct: expressed in transfected cells
T1 sequence (Q5NUL3 1-361): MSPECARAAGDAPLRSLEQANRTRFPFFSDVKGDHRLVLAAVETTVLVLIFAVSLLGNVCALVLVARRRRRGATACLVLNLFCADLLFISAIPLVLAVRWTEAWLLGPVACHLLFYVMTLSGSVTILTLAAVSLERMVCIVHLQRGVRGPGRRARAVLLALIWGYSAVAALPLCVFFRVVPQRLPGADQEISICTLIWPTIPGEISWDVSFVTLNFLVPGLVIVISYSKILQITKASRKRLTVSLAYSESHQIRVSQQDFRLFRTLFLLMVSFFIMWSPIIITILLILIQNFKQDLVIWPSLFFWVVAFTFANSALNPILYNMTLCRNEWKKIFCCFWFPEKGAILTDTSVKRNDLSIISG
Format: cell-based
Method: Using Lipofectamine 2000 (Invitrogen), cDNA of GPR120 receptor was transfected into CHO/NFAT-BLA cells, and drug-resistant cells were isolated to obtain GPR120 stable expression strains. The GPR120-expressed CHO cells were cultured in DMEM/F12 medium containing 10% fetal bovine serum, 100 units/ml penicillin, 0.1 mg/ml streptomycin sulfate, 250 μg/ml Zeocin, 500 μg/mL Geneticin and 15 mM HEPES. On the day before the measurement day, 4 μM Fluo-4 AM (fluorescence calcium indicator reagent) was incubated to be introduced into the human GPR120 expression CHO cells plated at 20000 cells per well of a 96-well black plate (ViewPlate; Packard) in the presence of 2.5 mM probenecid in a CO2 incubator for 1 hour. To the cells was added the test compound diluted with HBSS solution containing 20 mM HEPES and 2.5 mM probenecid. Variations in the intracellular calcium concentration were measured by Fluorescence Imaging Plate Reader (FLIPR; Molecular Devices) to examine the agonist action, and EC50 values were calculated.

Row | Compound | Agonistic activity at 10 μmol/l (%)
1 | 5-(4-(2-(3-ethylphenyl)-1-methylethoxy)phenyl)isoxazol-3-ol [Example 35] | 98
2 | 5-(4-(2-(4-methylphenoxy)propyl)phenyl)isoxazol-3-ol [Example 14] | 101
3 | 5-{4-[(2,2-difluoro-2-{3-[(1-methylethyl)oxy]phenyl}ethyl)oxy]phenyl}isoxazol-3-ol [Example 30] | 91
4 | 5-{4-[(2-fluoro-2-{3-[(1-methylethyl)oxy]phenyl}ethyl)oxy]phenyl}isoxazol-3-ol [Example 31] | 93
5 | COc1cccc(C(F)COc2ccc(-c3cc(O)no3)cc2)c1 (stereo not shown) [Example 2, 5-(4-(2-fluoro-2-(3-methoxyphenyl)ethoxy)phenyl)isoxazol-3-61] | 110
6 | CC(C)Oc1cccc(CC(C)Oc2ccc(-c3cc(O)no3)c(F)c2)c1 (stereo not shown) [Example 6, 5-{2-fluoro-4-[2-(3-isopropoxyphenyl)-1-methylethoxy]phenyl}isoxazol-3-01] | 98
7 | CC(Cc1ccc(-c2cc(O)no2)cc1)Oc1ccc(Cl)cc1 (stereo not shown) [Example 16, 5-(4-(2-(4-chlorophenoxy)propyl)phenyl)isoxazol-3-01] | 96
8 | CC(Cc1ccc(-c2cc(O)no2)cc1)Oc1ccc(Cl)cc1F (stereo not shown) [Example 17, 5-(4-(2-(4-chloro-2-fluorophenoxy)propyl)phenyl)isoxazol-3-01] | 97
9 | CC(C)Oc1cccc(C[C@@H](C)Oc2ccc(-c3cc(O)no3)cc2)c1 [Example 20] | 94

The next lines start with the values.

Row | Agonistic activity at 10 μmol/l (%) | Compound
10 | 84 | 5-(4-(2-(3-isopropoxyphenyl)propoxy)phenyl)-isoxazol-3-ol [Example 33]
11 | 91 | Cc1cccc(OC(C)Cc2ccc(-c3cc(O)no3)cc2)c1 (stereo not shown) [Example 11, 5-(4-(2-(3-methylphenoxy)propyl)phenyl)isoxazol-3-01]
12 | 97 | CC(Cc1ccc(-c2cc(O)no2)cc1)Oc1ccc(Cl)cc1Cl (stereo not shown) [Example 18, 5-(4-(2-(2,4-dichlorophenoxy)propyl)phenyl)isoxazol-3-01]
13 | 96 | CC(Cc1ccc(-c2cc(O)no2)cc1)Oc1cccc(OC(F)(F)F)c1 (stereo not shown) [Example 19]
14 | 93 | C[C@H](Cc1cccc(OC2CC2)c1)Oc1ccc(-c2cc(O)no2)cc1 [Example 22, 5-[4-({(1R)-1-methyl-2-[3-(cyclopropyloxy)phenyl]-1-methylethyl]oxy)phenyl}isoxazol-3-ol]
15 | 91 | CC(C)Oc1cccc(C[C@@H](C)Oc2ncc(-c3cc(O)no3)cn2)c1 [Example 32, 5-{2-[((1R)-1-methyl-2-{3-[(1-methylethyl)oxy]phenyl}ethyl)oxy]pyrimidin-5-yl}isoxazol-3-01]

Same assay, conditions: 10 μmol/l test compound, human GPR120 expression CHO cells, Fluo-4 AM, read-out: Agonistic activity at 10 μmol/l (%)

Row | Compound | activation at 10 µM [%]
16 | CC(C)Oc1cccc(CC(C)Oc2ccc(-c3cc(O)no3)cc2)c1 (stereo not shown) [Example 1, 5-(4-(2-(3-isopropoxyphenyl)-1-methylethoxy)phenyl)isoxazol-3-ol] | 104
17 | COc1cccc(C(F)(F)COc2ccc(-c3cc(O)no3)cc2)c1 [Example 3, 5-(4-(2,2-difluoro-2-(3-methoxyphenyl)ethoxy)phenyl)isoxazol-3-ol] | 105
18 | CC(C)Oc1cccc(CN(C)Cc2ccc(-c3cc(O)no3)cc2)c1 [Example 9, 5-(4-(((3-isopropoxybenzyl)(methyl)amino)methyl)phenyl)isoxazol-3-ol] | 100
19 | COc1cc(OC)cc(OC(C)Cc2ccc(-c3cc(O)no3)cc2)c1 (stereo not shown) [Example 15, 5-(4-(2-(3,5-dimethoxyphenoxy)propyl)phenyl)isoxazol-3-ol] | 97
20 | C[C@H](Cc1cccc(OC(F)(F)F)c1)Oc1ccc(-c2cc(O)no2)cc1 [Example 23, 5-{4-[((1R)-1-methyl-2-{3-[(trifluoromethyl)oxy]phenyl}ethyl)oxy]phenyl}isoxazol-3-ol] | 101
21 | C[C@H](Cc1ccc(Cl)c(OC(F)(F)F)c1)Oc1ccc(-c2cc(O)no2)cc1 [Example 25, 5-{4-[((1R)-2-{4-chloro-3-[(trifluoromethyl)oxy]phenyl}-1-methylethyl)oxy]phenyl}isoxazol-3-ol] | 91
22 | CC(C)Oc1cccc(C[C@@H](C)Oc2ccc(-c3cc(O)no3)c(F)c2)c1 [Example 28, 5-{2-fluoro-4-[((1R)-1-methyl-2-{3-[(1-methylethyl)oxy]phenyl}ethyl)oxy]phenyl}isoxazol-3-ol] | 97
23 | CC(C)Oc1cccc(C(F)COc2ccc(-c3cc(O)no3)cc2)c1 (stereo not shown) [Example 29, 5-{4-[(2-fluoro-2-{3-[(1-methylethyl)oxy]phenyl}ethyl)oxy]phenyl}isoxazol-3-ol] | 102

Continued, values first:

Row | activation at 10 µM [%] | Compound
24 | 98 | CC(C)Oc1cccc(C(C)COc2ccc(-c3cc(O)no3)cc2)c1 (stereo not shown) [Example 4, 5-(4-(2-(3-isopropoxyphenyl)propoxy)phenyl)-isoxazol-3-ol]
25 | 94 | CC(C)Oc1cccc(C(C)(C)COc2ccc(-c3cc(O)no3)cc2)c1 [Example 5, 5-(4-(2-methyl-2-(3-isopropoxyphenyl)propoxy)phenyl)-isoxazol-3-ol]
26 | 98 | CC(C)Oc1cccc(CC(C)Oc2ccc(-c3cc(O)no3)cn2)c1 (stereo not shown) [Example 7, 5-(6-(2-(3-isopropoxyphenyl)-1-methylethoxy)pyridin-3-yl)isoxazol-3-ol]
27 | 96 | CC(C)Oc1cccc(CC(C)Oc2ccc(-c3cc(O)no3)nc2)c1 (stereo not shown) [Example 8, 5-(5-(2-(3-isopropoxyphenyl)-1-methylethoxy)pyridin-2-yl)isoxazol-3-ol]
28 | 93 | CC(Cc1ccc(-c2cc(O)no2)cc1)Oc1ccccc1 (stereo not shown) [Example 10, 5-(4-(2-phenoxypropyl)phenyl)isoxazol-3-ol]
29 | 95 | COc1cccc(OC(C)Cc2ccc(-c3cc(O)no3)cc2)c1 (stereo not shown) [Example 12, 5-(4-(2-(3-methoxyphenoxy)propyl)phenyl)isoxazol-3-ol]
30 | 93 | CC(Cc1ccc(-c2cc(O)no2)cc1)Oc1cccc(C(F)(F)F)c1 (stereo not shown) [Example 13, 5-(4-(2-(3-(trifluoromethyl)phenoxy)propyl)phenyl)isoxazol-3-ol]
31 | 95 | CC(C)Oc1cccc(C[C@H](C)Oc2ccc(-c3cc(O)no3)cc2)c1 [Example 21, 5-{4-[((1S)-1-methyl-2-{3-[(1-methylethyl)oxy]phenyl}ethyl)oxy]phenyl}isoxazol-3-ol]
32 | 86 | C[C@H](Cc1ccc(OC(F)(F)F)cc1)Oc1ccc(-c2cc(O)no2)cc1 [Example 24, 5-{4-[((1R)-1-methyl-2-{4-[(trifluoromethyl)oxy]phenyl}ethyl)oxy]phenyl}isoxazol-3-ol]
33 | 100 | CC(C)Oc1cccc(C[C@@H](C)Oc2ccc(-c3cc(O)no3)cn2)c1 [Example 26, 5-{6-[((1R)-1-methyl-2-{3-[(1-methylethyl)oxy]phenyl}ethyl)oxy]pyridin-3-yl}isoxazol-3-ol Hydrochloride]
34 | 99 | CC(C)Oc1cccc(C[C@H](C)Oc2ccc(-c3cc(O)no3)cn2)c1 [Example 27, 5-{6-[((1S)-1-methyl-2-{3-[(1-methylethyl)oxy]phenyl}ethyl)oxy]pyridin-3-yl}isoxazol-3-ol Hydrochloride]
